Assay results: PubChem BioAssay (NCI)
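Growth conditions: 96-well plates. Treatment: test compound, 48 hours, 5 concentrations. Analysis: linear interpolation between bracketing concentrations; unreached endpoints set to highest concentration. TGI denotes the concentration required for complete inhibition of growth.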

Tests used:
Assay in all cases: NCI-60 cell line screen, 48 h
SK-OV-3 ovarian = tested on: SK-OV-3 ovarian
CAKI-1 renal = tested on: CAKI-1 renal
NCI-H226 lung = tested on: NCI-H226 lung
ACHN renal = tested on: ACHN renal
A498 renal = tested on: A498 renal
SN12C renal = tested on: SN12C renal
MDA-MB-231 breast = tested on: MDA-MB-231 breast
SF-295 CNS = tested on: SF-295 CNS
SW-620 colon = tested on: SW-620 colon
SR leukemia = tested on: SR leukemia
TK-10 renal = tested on: TK-10 renal
SF-539 CNS = tested on: SF-539 CNS
HT29 colon = tested on: HT29 colon
SK-MEL-28 melanoma = tested on: SK-MEL-28 melanoma
HCC-2998 colon = tested on: HCC-2998 colon
UO-31 renal = tested on: UO-31 renal
MOLT-4 leukemia = tested on: MOLT-4 leukemia
HOP-92 NSCLC = tested on: HOP-92 NSCLC
CCRF-CEM leukemia = tested on: CCRF-CEM leukemia
SK-MEL-5 melanoma = tested on: SK-MEL-5 melanoma
U251 CNS = tested on: U251 CNS
786-0 renal = tested on: 786-0 renal
NCI-H522 lung = tested on: NCI-H522 lung
NCI-H460 lung = tested on: NCI-H460 lung
BT-549 breast = tested on: BT-549 breast
LOX IMVI melanoma = tested on: LOX IMVI melanoma
K-562 leukemia = tested on: K-562 leukemia
OVCAR-5 ovarian = tested on: OVCAR-5 ovarian
SF-268 CNS = tested on: SF-268 CNS
PC-3 prostate = tested on: PC-3 prostate
MCF7 breast = tested on: MCF7 breast
IGROV1 ovarian = tested on: IGROV1 ovarian
HCT-15 colon = tested on: HCT-15 colon
HOP-62 NSCLC = tested on: HOP-62 NSCLC
SK-MEL-2 melanoma = tested on: SK-MEL-2 melanoma
KM12 colon = tested on: KM12 colon
T-47D breast = tested on: T-47D breast
HCT-116 colon = tested on: HCT-116 colon
MDA-N = tested on: MDA-N
M14 melanoma = tested on: M14 melanoma
UACC-62 melanoma = tested on: UACC-62 melanoma
COLO 205 colon = tested on: COLO 205 colon
HS 578T breast = tested on: HS 578T breast
OVCAR-3 ovarian = tested on: OVCAR-3 ovarian
RXF 393 renal = tested on: RXF 393 renal
NCI/ADR-RES ovarian = tested on: NCI/ADR-RES ovarian
MDA-MB-435 = tested on: MDA-MB-435
UACC-257 melanoma = tested on: UACC-257 melanoma
SNB-19 CNS = tested on: SNB-19 CNS
A549 NSCLC = tested on: A549 NSCLC
DU-145 prostate = tested on: DU-145 prostate
SNB-75 CNS = tested on: SNB-75 CNS
NCI-H23 lung = tested on: NCI-H23 lung
RPMI-8226 leukemia = tested on: RPMI-8226 leukemia
HL-60(TB) leukemia = tested on: HL-60(TB) leukemia
EKVX NSCLC = tested on: EKVX NSCLC
OVCAR-8 ovarian = tested on: OVCAR-8 ovarian
MALME-3M melanoma = tested on: MALME-3M melanoma
OVCAR-4 ovarian = tested on: OVCAR-4 ovarian

Measured: TGI

O=C(CCc1ccc(O)c(O)c1)NCCc1cc(O)cc(OCc2ccccc2)c1
75.9 µM: CCRF-CEM leukemia
58.4 µM: HCT-15 colon
58.7 µM: MDA-N
36.7 µM: SNB-19 CNS
40.7 µM: HCC-2998 colon
46.9 µM: ACHN renal
86 µM: BT-549 breast
32.2 µM: SK-MEL-5 melanoma
38.2 µM: HL-60(TB) leukemia
80 µM: NCI-H23 lung
51.7 µM: NCI-H460 lung
71 µM: UO-31 renal
83.4 µM: SR leukemia
not listed: OVCAR-8 ovarian | MALME-3M melanoma | OVCAR-4 ovarian
> 100 µM: all other assays above

O=C1CC2(CCC(O)(c3ccccc3)C(C(=O)c3ccccc3)C2)C(=O)c2ccccc2N1 (stereo unspecified)
not listed: ACHN renal | 786-0 renal | NCI-H522 lung | KM12 colon | RPMI-8226 leukemia
> 100 µM: all other assays above

O=C(Nc1ccccc1)c1cc(S(=O)(=O)n2cc[nH]c2=O)c(S)cc1Cl
97.5 µM: SNB-75 CNS
not listed: SK-OV-3 ovarian | MALME-3M melanoma | OVCAR-4 ovarian
> 100 µM: all other assays above
